Reference: US9132191B2, “Compositions and methods of preventing or ameliorating abnormal thrombus formation and cardiovascular disease” (Yale University, priority 2011, dated 2015)

Columns and labels:
human platelets [1] = test: Collagen-induced platelet aggregation (light transmission, Lumi-aggregometer); format: cell-based; conditions: NG or HG 90 min; 1 μg/mL collagen; SB239063 50 μmol/L, U73122 5 μmol/L, quercetin 10 μmol/L, SQ29548 10 μmol/L, NAC, apocynin 100 μmol/L
Experimental: Venous blood was drawn from volunteers at Yale University Medical School, free from medication known to interfere with platelet function. […] PRP was obtained by centrifugation of blood at 250 g at 37° C. for 15 min and the platelet count in the PRP was estimated by an automated cell counter.
Platelet-poor plasma (PPP) was obtained by centrifugation of the rest of the blood at 1400 g at 25° C. for 10 min. The PRP was adjusted with PPP to 2−3×10^8 platelets/mL suspensions.
Platelet aggregation was monitored at 37° C. with constant stirring (1,200 rpm) in a dual-channel Lumi-aggregometer (Chrono-Log model 700). Platelet aggregation was measured as the increase in light transmission for 10 min, starting with the addition of 0.5 μL of 1 mg/mL collagen (Chrono-Log) as a proaggregatory stimulus. For measuring ADP-stimulated platelet aggregation, 1 μM ADP (Chrono-Log) was used. The maximum aggregation was expressed as percentage of maximum light transmission, with non-stimulated platelet-rich plasma being 0% and platelet-poor plasma 100%.

human platelets [2] = test: Thromboxane biosynthesis (TXB2 EIA in platelet supernatant); format: cell-based; conditions: NG or HG; 1 μg/mL collagen; U73122 5 μmol/L, SB239063 50 μmol/L, SQ29548 10 μmol/L
Experimental: Platelets were sedimented by centrifugation at 2,500 g for 5 min, and the supernatant was harvested for the measurement of TX levels. Since TXA2 is rapidly hydrolyzed into TXB2, the level of TXB2 was measured using TXB2 EIA kit according to the manufacturer's ELISA instructions (Cayman Chemical).

human platelets [3] = test: Oxidative stress and superoxide level in collagen-stimulated platelets; format: cell-based; conditions: NG and HG, epalrestat 10 μmol/L, 10 mmol/L NAC, 100 μmol/L apocynin
Experimental: The oxidative stress and superoxide level was measured by a commercial kit according to the manufacturer's instruction (Total ROS/Superoxide Detection Kit, Enzo Life Sciences). Platelets were sedimented by centrifugation at 400 g for 5 min, and then washed. The washed platelets were incubated with 1 μmol/L ROS/Superoxide detection mix for 60 min at 37° C. in the presence or absence of 1 μg/mL collagen.

[4] = test system: thromboxane receptor (TP); test: Surface expression of thromboxane receptor in collagen-stimulated platelets; format: cell-based, human; conditions: HG; 1 μg/mL collagen; epalrestat 10 μmol/L, NAC, apocynin
Experimental: (§1) Primary antibodies against the following proteins were diluted and used according to the manufacturer's instructions: AR (sc-17732, Santa Cruz Biotechnology), PKC α (sc-208, Santa Cruz Biotechnology) and its phosphorylated form (sc-136018, Thr638, Santa Cruz Biotechnology), PKC βII (NB110-57358, Novus Biologicals) and its phosphorylated form (NSB964, Thr641, Novus Biologicals), PKC δ (2058, Cell Signaling) and its phosphorylated form (9376, Ser643, Cell Signaling), PLC-γ1 (H00005335-A01, Novus Biologicals) and its phosphorylated form (07866, Tyr783, Millipore), PLC-γ2 (NB110-66669, Novus Biologicals) and its phosphorylated form (NB110-57424, Tyr1217, Novus Biologicals), p38α MAPK (9212, Cell Signaling) and its phosphorylated form (AF869, T180/Y182, R&D Systems), and TX receptor (NBP1-40198, Novus Biologicals). Secondary antibodies against rabbit and mouse IgG (Thermo Scientific) were diluted 1:5000 before use. The membrane was re-probed with antibodies against Na^+/K^+-ATPase (NB300-147, Novus Biologicals), a plasma membrane marker, and GAPDH (sc-20357, Santa Cruz Biotechnology), a cytoplasmic marker, for normalization.
Platelets were sedimented by centrifugation at 2,500 g for 5 min. The membrane and cytosolic fractions of total extracts were separated using the subcellular protein fractionation kit (Thermo Scientific). […]

washed platelet = test: Aggregometry of washed platelets incubated with AR inhibitors (Example 12); format: cell-based; conditions: Homo sapiens, 10 μM inhibitor, 1 hour at 37° C., collagen 1 μg/mL, light transmission 5 min, read-out: % reduction (platelet aggregation, light transmission)
Experimental: Platelet-poor plasma (PPP) was obtained by centrifugation of the rest of the blood at 1400 g at 25° C. for 10 min. The PRP was adjusted with PPP to 2−3×10^8 platelets/mL suspensions. For the washed platelets, PRP was obtained by centrifugation at 250 g for 15 min, and platelets were sedimented at 1,000 g for 15 min, and then resuspended in washing buffer (103 mmol/L NaCl, 5 mmol/L KCl, 1 mmol/L MgCl2, 5 mmol/L glucose, 36 mmol/L citric acid) at pH 6.5 containing 3.5 mg/mL bovine serum albumin (Sigma). After sedimentation, the platelets were washed twice in this buffer and resuspended at 2−3×10^8 platelets/mL in the buffer composed of 5 mmol/L HEPES, 137 mmol/L NaCl, 2 mmol/L KCl, 1 mmol/L MgCl2, 12 mmol/L NaHCO3, 0.3 mmol/L NaH2PO4, 5.5 mmol/L glucose, pH 7.4, containing 3.5 mg/mL BSA (Saxena et al., 1989, Science 243:1596-1599).
Washed platelet (1×10^8) were incubated with AR inhibitors for 1 hour at 37° C. For aggregometry studies, 0.5 μL of collagen solution (with a final concentration of 1 μg/mL) was added into 500 μL of washed platelet, and then the light transmission was measured for 5 min. […] The percentage of platelet aggregation, as measured in terms of light transmission, is summarized in FIG. 17, and representative tracings are depicted in FIG. 18.

platelet COX-1 = target: T1, platelet COX-1 (Homo sapiens, UniProt P23219); test: Residual serum TXB2 generation in clotted whole blood (index of platelet COX-1 activity); format: cell-based
T1 construct: in whole blood allowed to clot for 1 h at 37° C; (serum TXB2) which is an index of maximal capacity of platelets; endogenous in cells; host or cells: platelets in whole blood of diabetic patients and healthy subjects
T1 sequence (P23219 24-599): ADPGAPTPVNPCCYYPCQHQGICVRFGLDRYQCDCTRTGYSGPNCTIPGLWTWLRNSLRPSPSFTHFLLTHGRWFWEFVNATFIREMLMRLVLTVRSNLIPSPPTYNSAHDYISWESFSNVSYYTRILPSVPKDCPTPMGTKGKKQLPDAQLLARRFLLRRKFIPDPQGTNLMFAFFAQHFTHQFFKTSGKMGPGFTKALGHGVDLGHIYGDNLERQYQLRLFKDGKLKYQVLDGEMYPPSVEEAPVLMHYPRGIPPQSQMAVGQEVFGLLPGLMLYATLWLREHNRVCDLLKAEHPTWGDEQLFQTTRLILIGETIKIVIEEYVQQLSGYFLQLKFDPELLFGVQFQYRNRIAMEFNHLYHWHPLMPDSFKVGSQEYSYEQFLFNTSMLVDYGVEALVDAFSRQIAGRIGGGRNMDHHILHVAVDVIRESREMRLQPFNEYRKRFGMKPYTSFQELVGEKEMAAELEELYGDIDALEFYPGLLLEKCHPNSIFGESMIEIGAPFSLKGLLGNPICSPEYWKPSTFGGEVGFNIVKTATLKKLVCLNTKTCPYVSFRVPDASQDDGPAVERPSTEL
From the text: Patients with the presence of type 2 diabetes (n=102) were recruited from the Hospital Policlinico G.B. Rossi (Verona, Italy) and San Pio da Pietrelcina Hospital (Vasto, Italy). Exclusion criteria included concurrent cancer, inflammatory disorder, immunological disorder, surgery or major trauma in the previous month or use of nonsteroidal anti-inflammatory drugs (NSAIDs) or corticosteroids in the previous month. Both the diabetic population and the severe cardiovascular disease population were chronically treated with low dose aspirin for at least one month (enteric coated aspirin 100 mg for at least 7 consecutive days). After recruitment the patients received a standard oral dose of 100 mg for seven days at 8.00 pm. […] The 10 healthy subjects recruited were from the staff of Hospital Policlinico G.B. Rossi (Verona Italy) with normal ECG and echocardiograms and no evidence of atherosclerosis by carotid artery sonography. The healthy subjects were all treated with aspirin 100 mg daily for 1 week.
(serum TXB2) which is an index of maximal capacity of platelets to generate TXB2.
In order to verify whether in these patients higher generation of platelet TXB2 was due to the phenomenon of aspirin resistance which implies that the aspirin target, i.e., COX-1, is less sensitive to inactivation by aspirin, residual generation of TXB2 was assessed after adding aspirin (50 μg/mL) in vitro.

p38α MAPK = p38α MAPK phosphorylation in collagen-stimulated platelets (phospho-kinase array, Western blot); format: cell-based, human; conditions: NG and HG; 1 μg/mL collagen 10 min; epalrestat 10 μmol/L, U73122, NAC 1 mmol/L, quercetin 10 μmol/L
Experimental: Platelets were homogenized in the lysis buffer (25 mmol/L Tris HCl, pH 7.6, 150 mmol/L NaCl, 1% NP-40, 1% sodium deoxycholate, 0.1% SDS) with the addition of 0.1% protease inhibitor and 0.1% phosphatase inhibitor (Thermo Scientific). The supernatant was collected after centrifugation at 13,000 rpm for 15 min at 4° C. The samples are loaded in 4×SDS-Laemmli sample buffers and boiled for 10 min. Equal amounts of total extracts were subjected to SDS-PAGE. The proteins were transferred to nitrocellulose membrane and probed with the indicated antibodies, and the antigen-antibody complex was detected by enhanced chemiluminescence reagents (Thermo Scientific).
as §1
The human phospho-kinase array was performed according to the manufacturer's instruction (R&D Systems). […] The signals for the amount of phosphorylated proteins bound were measured by the chemiluminescent detection method.

aldose reductase = aldose reductase (Homo sapiens, UniProt P15121); conditions: aldose reductase inhibitor IC50; no method given; cited from earlier work

O=C(O)CCC/C=C\C[C@@H]1[C@H](CNNC(=O)Nc2ccccc2)[C@H]2CC[C@@H]1O2 [SQ29548, 1S-[1-alpha,2-beta-(5Z),3-beta,4-alpha]-7-[3-[[2-[(phenylamino)carbonyl]hydrazino]methyl]-7-oxabicyclo[2.2.1]hept-2-yl]-5-heptenoic acid]
collagen-induced platelet aggregation (signalling inhibitors) (human platelets [1]): attenuated the collagen-induced platelet aggregation | collagen-induced TXB2 (TXA2) release (signalling inhibitors) (human platelets [2]): attenuated collagen-induced TXA2 release

COc1cc(C(C)=O)ccc1O [apocynin]
collagen-induced platelet aggregation (signalling inhibitors) (human platelets [1]): attenuated the collagen-induced platelet aggregation to a similar extent as ARI | level of oxidative stress and superoxide (human platelets [3]): significantly reduced | surface expression of TX receptor (TP) [4]: significantly attenuated

COc1ccc2c(C(=S)N(C)CC(=O)O)cccc2c1C(F)(F)F [IDD 63, N-{[6-methoxy-5-(trifluoromethyl)-1-naphthyl]carbothioyl}-N-methylglycine]
inhibition at 10 µM (washed platelet): 78%

CC(=O)Oc1ccccc1C(=O)O [aspirin, Acetylsalicylic Acid]
diabetic patients with residual TXB2 levels higher than 4 ng/mL with aspirin in vitro (platelet COX-1; aspirin 50 μg/mL added in vitro): 2% | residual TXB2 generation after adding aspirin in vitro (platelet COX-1; aspirin 50 μg/mL in vitro, diabetic patients and healthy subjects on aspirin 100 mg/day, blood clotted 1 h at 37° C.): further significant reduction | diabetic patients with residual serum TXB2 higher than 4 ng/mL (platelet COX-1; ex vivo, 12 h after the last dose of aspirin 100 mg/day): 12%

CC(=O)N[C@@H](CS)C(=O)O [NAC, N-acetyl-cysteine]
collagen-induced platelet aggregation (signalling inhibitors) (human platelets [1]): attenuated the collagen-induced platelet aggregation to a similar extent as ARI | collagen-induced phosphorylation of p38α MAPK (Western blot) (p38α MAPK): significantly reduced | level of oxidative stress and superoxide (human platelets [3]): significantly reduced | surface expression of TX receptor (TP) [4]: significantly attenuated

O=C(O)Cn1cc(Cc2nc3c(F)c(F)cc(F)c3s2)c2ccccc21 [IDD 676, [3-(4,5,7-Trifluorobenzothiazol-2-ylmethyl)indol-1-yl]acetic acid]
inhibition at 10 µM (washed platelet): 54%

O=C(O)Cc1nn(Cc2nc3cc(C(F)(F)F)ccc3s2)c(=O)c2ccccc12 [IDD 65, 3,4-Dihydro-4-oxo-3-[[5-(trifluoromethyl)-2-benzothiazolyl]methyl]-1-phthalazineacetic acid]
inhibition at 10 µM (washed platelet): 50%

COc1ccc2c(c1)CC[C@@H]1[C@@H]2CC[C@]2(C)[C@@H](NCCCCCCN3C(=O)C=CC3=O)CC[C@@H]12 [U73122]
collagen-induced platelet aggregation (signalling inhibitors) (human platelets [1]): reduced platelet aggregation | collagen-induced phosphorylation of p38α MAPK (Western blot) (p38α MAPK): significantly reduced | collagen-induced TXB2 (TXA2) release (signalling inhibitors) (human platelets [2]): attenuated the collagen-induced TXB2 release

COc1nccc(-c2c(-c3ccc(F)cc3)ncn2[C@H]2CC[C@H](O)CC2)n1 [SB239063, trans-4-[4-(4-fluorophenyl)-5-(2-methoxy-4-pyrimidinyl)-1H-imidazol-1-yl]cyclohexanol]
collagen-induced platelet aggregation (signalling inhibitors) (human platelets [1]): reduced platelet aggregation | collagen-induced TXB2 (TXA2) release (signalling inhibitors) (human platelets [2]): attenuated the collagen-induced TXB2 release

O=c1c(O)c(-c2ccc(O)c(O)c2)oc2cc(O)cc(O)c12 [quercetin]
collagen-induced platelet aggregation (signalling inhibitors) (human platelets [1]): reduced platelet aggregation | collagen-induced phosphorylation of p38α MAPK (Western blot) (p38α MAPK): attenuated

O=C1NC(=O)[C@@]2(CCOc3ccc(F)cc32)N1 [IDD 60, (4S)-6-Fluoro-2,3-dihydro-2′H,5′H-spiro[chromene-4,4′-imidazolidine]-2′,5′-dione]
inhibition at 10 µM (washed platelet): 67%

CCCCCOc1ccc(C2SC(=O)NC2=O)cc1OCC (centres unmarked) [IDD 73, 5-[3-Ethoxy-4-(pentyloxy)phenyl]-2,4-thiazolidinedione]
inhibition at 10 µM (washed platelet): 54% | IC50 (aldose reductase): 294 nM

O=C(O)CN1C(=O)C(=O)N(Cc2cccc([N+](=O)[O-])c2)C1=O [IDD 314, 3-(3-nitrobenzyl)-2,4,5-trioxoimidazolidine-1-acetic acid]
inhibition at 10 µM (washed platelet): 52% | IC50 (aldose reductase): 718 nM

O=C1CC2(C(=O)N1)C(=O)N(Cc1ccc(Br)cc1F)C(=O)c1ccc(F)cc12 (racemic) [IDD 62, (±)-2-(4-Bromo-2-fluorobenzyl)-6-fluorospiro[1,2,3,4-tetrahydroisoquinoline-4,3′-pyrrolidine]-1,2′,3,5′-tetraone]
inhibition at 10 µM (washed platelet): 59%

O=C(O)Cn1c(=O)n(Cc2ccc(Br)cc2F)c(=O)c2ccc(Cl)cc21 [IDD 148, 3-(2-Fluoro-4-bromobenzyl)-7-chloro-2,4(1H,3H)-dioxoquinazoline-1-acetic acid]
inhibition at 10 µM (washed platelet): 61%
